Assay results: patent US11596639B2, “Substituted indole Mcl-1 inhibitors” (Vanderbilt University, priority 2016, dated 2023)
Where two headings read alike, the source gives them in different places.

Experiments:
Mcl-1 = Mcl-1 (Homo sapiens (Human), UniProt Q07820); assay: Fluorescence polarization anisotropy (FPA) competition assay, FITC-Bak or FITC-Bim BH3 peptide; format: binding; settings: read-out: Ki for Inhibition of Mcl-1 by FPA assay
[1] = test system: H929 human cancer cell lines; assay: Cellular viability / proliferation (Cell TiterGlo, 72 h); format: cell-based
Outline: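 Top dose 50 μM, serially diluted 2-fold, applied one day after seeding (1,000 cells/well, 10% FBS), DMSO below 1%.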

[2] = Homo sapiens, NCI-H929, 72 h, read-out: GI50 on cellular proliferation of H929 human cancer cell lines, H929 cells, 72 h, Cell TiterGlo, 10% FBS
[3] = read-out: GI50 on cellular proliferation of H929 human cancer cell lines, H929 cells, 72 h, Cell TiterGlo, 10% FBS

Mcl-1, sequence (Q07820 172-327): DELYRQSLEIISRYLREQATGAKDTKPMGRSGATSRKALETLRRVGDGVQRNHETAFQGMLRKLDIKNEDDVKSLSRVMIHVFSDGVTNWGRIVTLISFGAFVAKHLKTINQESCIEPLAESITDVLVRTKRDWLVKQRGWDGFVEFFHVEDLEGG

## Cc1cc(OCCCc2c3n(c4c(-c5c(C)nc(N6CCN(C)CC6)nc5C)c(Cl)ccc24)CCCN(c2cn(C)c4ccc(C(=O)O)cc24)C3=O)cc(C)c1Cl [Example 228, 3-(8-Chloro-11-(3-(4-chloro-3,5-dimethylphenoxy)propyl)-7-(4,6-dimethyl-2-(4-methylpiperazin-1-yl)pyrimidin-5-yl)-1-oxo-4,5-dihydro-1H-[1,4]diazepino[1,2-a]indol-2(3H)-yl)-1-methyl-1H-indole-5-carboxylic acid]
Mcl-1
  Ki: 0.0016 µM
[1]; [2]
  GI50: 0.78 µM

## Cc1cc(OCCCc2c3n(c4c(-c5c(C)nn(C)c5C)c(Cl)ccc24)CCCN(c2cc(C(=O)O)c4c(Cl)cn(C)c4c2)C3=O)cc(C)c1Cl [Example 3, 3-Chloro-6-(8-chloro-11-(3-(4-chloro-3,5-dimethylphenoxy)propyl)-1-oxo-7-(1,3,5-trimethyl-1H-pyrazol-4-yl)-4,5-dihydro-1H-[1,4]diazepino[1,2-a]indol-2(3H)-yl)-1-methyl-1H-indole-4-carboxylic acid]
Mcl-1
  Ki: 0.0011 µM
[1]; [2]
  GI50: 6.6 µM

## Cc1cc(OCCCc2c3n(c4c(-c5c(C)ncnc5C)c(Cl)ccc24)CCCN(c2cc(C(=O)O)cc4c2OCCO4)C3=O)cc(C)c1Cl [Example 154, 5-[8-Chloro-11-[3-(4-chloro-3,5-dimethyl-phenoxy)propyl]-7-(4,6-dimethylpyrimidin-5-yl)-1-oxo-4,5-dihydro-3H-[1,4]diazepino[1,2-a]indol-2-yl]-2,3-dihydro-1,4-benzodioxine-7-carboxylic acid]
Mcl-1
  Ki: < 0.001 µM
[1]; [2]
  GI50: 1.3 µM

## Cc1cc(OCCCc2c3n(c4c(-c5c(C)nn(C)c5C)c(Cl)ccc24)[C@H](C)CN(c2cccc4cc(C(=O)O)oc24)C3=O)cc(C)c1Cl [Example 194, (R)-7-(7-Chloro-10-(3-(4-chloro-3,5-dimethylphenoxy)propyl)-4-methyl-1-oxo-6-(1,3,5-trimethyl-1H-pyrazol-4-yl)-3,4-dihydropyrazino[1,2-a]indol-2(1H)-yl)benzofuran-2-carboxylic acid]
Mcl-1
  Ki: < 0.001 µM
[1]; [2]
  GI50: 2.3 µM

## Cc1cc(OCCCc2c3n(c4c(-c5c(C)nc(CN6CCNCC6)nc5C)c(Cl)ccc24)[C@H](C)CN(c2cn(C)c4ccc(C(=O)O)cc24)C3=O)cc(C)c1Cl [Example 441, (R)-3-(7-Chloro-10-(3-(4-chloro-3,5-dimethylphenoxy)propyl)-6-(4,6-dimethyl-2-(piperazin-1-ylmethyl)pyrimidin-5-yl)-4-methyl-1-oxo-3,4-dihydropyrazino[1,2-a]indol-2(1H)-yl)-1-methyl-1H-indole-5-carboxylic acid]
Mcl-1
  Ki: 0.007 µM
[1]; [2]
  GI50: 4.6 µM

## Cc1cc(OCCCc2c3n(c4c(-c5c(C)nn(C)c5C)c(Cl)ccc24)[C@H](C)CN(c2cn(C)c4ccc(-c5nnnn5C)cc24)C3=O)cc(C)c1Cl [Example 358, (R)-7-Chloro-10-(3-(4-chloro-3,5-dimethylphenoxy)propyl)-4-methyl-2-(1-methyl-5-(1-methyl-1H-tetrazol-5-yl)-1H-indol-3-yl)-6-(1,3,5-trimethyl-1H-pyrazol-4-yl)-3,4-dihydropyrazino[1,2-a]indol-1(2H)-one]
Mcl-1
  Ki: 0.0042 µM
[1]; [2]
  GI50: 2.3 µM

## Cc1cc(OCCCc2c3n(c4c(-c5c(C)nn(C)c5C)c(Cl)ccc24)[C@H](C)CN(c2cccc4cc(C(=O)O)n(CC5CCCO5)c24)C3=O)cc(C)c1Cl (stereo partly drawn) [Example 326, 7-((R)-7-Chloro-10-(3-(4-chloro-3,5-dimethylphenoxy)propyl)-4-methyl-1-oxo-6-(1,3,5-trimethyl-1H-pyrazol-4-yl)-3,4-dihydropyrazino[1,2-a]indol-2(1H)-yl)-1-((tetrahydrofuran-2-yl)methyl)-1H-indole-2-carboxylic acid]
Mcl-1
  Ki: < 0.001 µM
[1]; [2]
  GI50: 0.59 µM

## Cc1cc(OCCCc2c3n(c4c(-c5c(C)nn(C)c5C)c(Cl)ccc24)CCCN(c2cc(C(=O)O)cc4c2cnn4C)C3=O)cc(C)c1Cl [Example 45, 4-[8-chloro-11-[3-(4-chloro-3,5-dimethyl-phenoxy)propyl]-1-oxo-7-(1,3,5-trimethylpyrazol-4-yl)-4,5-dihydro-3H-[1,4]diazepino[1,2-a]indol-2-yl]-1-methyl-indazole-6-carboxylic acid]
Mcl-1
  Ki: 0.0017 µM
[1]; [2]
  GI50: 3.8 µM

## Cc1cc(OCCCc2c3n(c4c(-c5c(C)nn(C)c5C)c(Cl)ccc24)[C@H](C)CN(c2cccc4c(C(=O)O)cn(C)c24)C3=O)cc(C)c1Cl [Example 214, (R)-7-(7-chloro-10-(3-(4-chloro-3,5-dimethylphenoxy)propyl)-4-methyl-1-oxo-6-(1,3,5-trimethyl-1H-pyrazol-4-yl)-3,4-dihydropyrazino[1,2-a]indol-2(1H)-yl)-1-methyl-1H-indole-3-carboxylic acid]
Mcl-1
  Ki: < 0.001 µM
[1]; [3]
  GI50: 0.38 µM

## COc1cc(C(=O)O)cc(N2CCCn3c(c(CCCOc4cc(C)c(Cl)c(C)c4)c4ccc(Cl)c(-c5c(C)nn(C)c5C)c43)C2=O)c1OCCO [Example 62, 3-[8-chloro-11-[3-(4-chloro-3,5-dimethyl-phenoxy)propyl]-1-oxo-7-(1,3,5-trimethylpyrazol-4-yl)-4,5-dihydro-3H-[1,4]diazepino[1,2-a]indol-2-yl]-4-(2-hydroxyethoxy)-5-methoxy-benzoic acid]
Mcl-1
  Ki: < 0.001 µM
[1]; [2]
  GI50: 11 µM

## Cc1cc(OCCCc2c3n(c4c(-c5c(C)nn(C)c5C)c(Cl)ccc24)[C@H](C)CN(c2cn(C)c4c(-c5nnn[nH]5)cccc24)C3=O)cc(C)c1Cl [Example 258, (R)-7-Chloro-10-(3-(4-chloro-3,5-dimethylphenoxy)propyl)-4-methyl-2-(1-methyl-7-(1H-tetrazol-5-yl)-1H-indol-3-yl)-6-(1,3,5-trimethyl-1H-pyrazol-4-yl)-3,4-dihydropyrazino[1,2-a]indol-1(2H)-one]
Mcl-1
  Ki: < 0.001 µM
[1]; [2]
  GI50: 3.6 µM

## Cc1cc(OCCCc2c3n(c4c(-c5c(C)nn(C)c5C)c(Cl)ccc24)[C@H](C)CN(c2cn(C)c4ccc(-c5nc[nH]n5)cc24)C3=O)cc(C)c1Cl [Example 420, (R)-7-Chloro-10-(3-(4-chloro-3,5-dimethylphenoxy)propyl)-4-methyl-2-(1-methyl-5-(1H-1,2,4-triazol-3-yl)-1H-indol-3-yl)-6-(1,3,5-trimethyl-1H-pyrazol-4-yl)-3,4-dihydropyrazino[1,2-a]indol-1(2H)-one]
Mcl-1
  Ki: 0.002 µM
[1]; [2]
  GI50: 0.28 µM

## Cc1cccc(Cn2c(C(=O)O)cc3cccc(N4C[C@@H](C)n5c(c(CCCOc6cc(C)c(Cl)c(C)c6)c6ccc(Cl)c(-c7c(C)nn(C)c7C)c65)C4=O)c32)n1 [Example 381, (R)-7-(7-Chloro-10-(3-(4-chloro-3,5-dimethylphenoxy)propyl)-4-methyl-1-oxo-6-(1,3,5-trimethyl-1H-pyrazol-4-yl)-3,4-dihydropyrazino[1,2-a]indol-2(1H)-yl)-1-((6-methylpyridin-2-yl)methyl)-1H-indole-2-carboxylic acid]
Mcl-1
  Ki: 0.0026 µM
[1]; [2]
  GI50: 0.25 µM

## COCCOc1cc(N2C[C@@H](C)n3c(c(CCCOc4cc(C)c(Cl)c(C)c4)c4ccc(Cl)c(-c5c(C)nn(C)c5C)c43)C2=O)c2c(c1)cc(C(=O)O)n2C [Example 461, (R)-7-(7-Chloro-10-(3-(4-chloro-3,5-dimethylphenoxy)propyl)-4-methyl-1-oxo-6-(1,3,5-trimethyl-1H-pyrazol-4-yl)-3,4-dihydropyrazino[1,2-a]indol-2(1H)-yl)-5-(2-methoxyethoxy)-1-methyl-1H-indole-2-carboxylic acid]
Mcl-1
  Ki: < 0.001 µM
[1]; [2]
  GI50: < 0.2 µM

## Cc1cc(N2C[C@@H](C)n3c(c(CCCOc4cc(C)c(Cl)c(C)c4)c4ccc(Cl)c(-c5c(C)nn(C)c5C)c43)C2=O)c2c(c1)c(C(=O)O)cn2C [Example 162, (R)-7-(7-chloro-10-(3-(4-chloro-3,5-dimethylphenoxy)propyl)-4-methyl-1-oxo-6-(1,3,5-trimethyl-1H-pyrazol-4-yl)-3,4-dihydropyrazino[1,2-a]indol-2(1H)-yl)-1,5-dimethyl-1H-indole-3-carboxylic acid]
Mcl-1
  Ki: < 0.001 µM
[1]; [3]
  GI50: 0.26 µM

## COCCn1c(C(=O)O)cc2cccc(N3C[C@@H](C)n4c(c(CCCOc5cc(C)c(Cl)c(C)c5)c5ccc(Cl)c(-c6c(C)nn(C)c6C)c54)C3=O)c21 [Example 256, 7-[(4R)-7-chloro-10-[3-(4-chloro-3,5-dimethyl-phenoxy)propyl]-4-methyl-1-oxo-6-(1,3,5-trimethylpyrazol-4-yl)-3,4-dihydropyrazino[1,2-a]indol-2-yl]-1-(2-methoxyethyl)indole-2-carboxylic acid]
Mcl-1
  Ki: < 0.001 µM
[1]; [2]
  GI50: 0.27 µM

## Cc1cc(OCCCc2c3n(c4c(-c5c(C)nn(C)c5C)c(Cl)ccc24)[C@H](C)CN(c2ccc4oc(C(=O)O)cc4c2)C3=O)cc(C)c1Cl [Example 196, (R)-5-(7-Chloro-10-(3-(4-chloro-3,5-dimethylphenoxy)propyl)-4-methyl-1-oxo-6-(1,3,5-trimethyl-1H-pyrazol-4-yl)-3,4-dihydropyrazino[1,2-a]indol-2(1H)-yl)benzofuran-2-carboxylic acid]
Mcl-1
  Ki: < 0.001 µM
[1]; [2]
  GI50: 3.4 µM

## Cc1cc(OCCCc2c3n(c4c(-c5c(C)nn(C)c5C)c(Cl)ccc24)[C@H](C)CN(c2ccc4c(c2)c(C(=O)O)nn4C)C3=O)cc(C)c1Cl [Example 116, (R)-5-(7-Chloro-10-(3-(4-chloro-3,5-dimethylphenoxy)propyl)-4-methyl-1-oxo-6-(1,3,5-trimethyl-1H-pyrazol-4-yl)-3,4-dihydropyrazino[1,2-a]indol-2(1H)-yl)-1-methyl-1H-indazole-3-carboxylic acid]
Mcl-1
  Ki: < 0.001 µM
[1]; [2]
  GI50: 9.7 µM

## COC(=O)c1ccc2c(c1)c(N1C[C@@H](C)n3c(c(CCCOc4cc(C)c(Cl)c(C)c4)c4ccc(Cl)c(-c5c(C)nn(C)c5C)c43)C1=O)cn2C (single isomer, unassigned) [Example 207]
Mcl-1
  Ki: < 0.001 µM
[1]; [3]
  GI50: 0.75 µM
